In experiment [1] the target is T1, Neuropeptide Y receptor type 1 (Homo sapiens, UniProt P25929).
T1 sequence (P25929 whole entry): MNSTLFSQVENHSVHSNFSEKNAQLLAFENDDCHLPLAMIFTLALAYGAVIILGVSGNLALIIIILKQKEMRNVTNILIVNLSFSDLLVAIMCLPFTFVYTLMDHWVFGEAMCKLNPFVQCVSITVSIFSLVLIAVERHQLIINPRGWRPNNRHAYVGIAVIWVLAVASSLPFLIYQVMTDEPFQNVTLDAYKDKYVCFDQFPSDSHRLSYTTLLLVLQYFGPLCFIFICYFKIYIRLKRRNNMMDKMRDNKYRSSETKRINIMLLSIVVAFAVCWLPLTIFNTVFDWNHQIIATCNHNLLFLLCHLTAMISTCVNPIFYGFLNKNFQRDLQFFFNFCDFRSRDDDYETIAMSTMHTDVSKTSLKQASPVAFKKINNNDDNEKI

In a further experiment the target is T2, Progesterone receptor (Homo sapiens, UniProt P06401).
T2 sequence (P06401 whole entry): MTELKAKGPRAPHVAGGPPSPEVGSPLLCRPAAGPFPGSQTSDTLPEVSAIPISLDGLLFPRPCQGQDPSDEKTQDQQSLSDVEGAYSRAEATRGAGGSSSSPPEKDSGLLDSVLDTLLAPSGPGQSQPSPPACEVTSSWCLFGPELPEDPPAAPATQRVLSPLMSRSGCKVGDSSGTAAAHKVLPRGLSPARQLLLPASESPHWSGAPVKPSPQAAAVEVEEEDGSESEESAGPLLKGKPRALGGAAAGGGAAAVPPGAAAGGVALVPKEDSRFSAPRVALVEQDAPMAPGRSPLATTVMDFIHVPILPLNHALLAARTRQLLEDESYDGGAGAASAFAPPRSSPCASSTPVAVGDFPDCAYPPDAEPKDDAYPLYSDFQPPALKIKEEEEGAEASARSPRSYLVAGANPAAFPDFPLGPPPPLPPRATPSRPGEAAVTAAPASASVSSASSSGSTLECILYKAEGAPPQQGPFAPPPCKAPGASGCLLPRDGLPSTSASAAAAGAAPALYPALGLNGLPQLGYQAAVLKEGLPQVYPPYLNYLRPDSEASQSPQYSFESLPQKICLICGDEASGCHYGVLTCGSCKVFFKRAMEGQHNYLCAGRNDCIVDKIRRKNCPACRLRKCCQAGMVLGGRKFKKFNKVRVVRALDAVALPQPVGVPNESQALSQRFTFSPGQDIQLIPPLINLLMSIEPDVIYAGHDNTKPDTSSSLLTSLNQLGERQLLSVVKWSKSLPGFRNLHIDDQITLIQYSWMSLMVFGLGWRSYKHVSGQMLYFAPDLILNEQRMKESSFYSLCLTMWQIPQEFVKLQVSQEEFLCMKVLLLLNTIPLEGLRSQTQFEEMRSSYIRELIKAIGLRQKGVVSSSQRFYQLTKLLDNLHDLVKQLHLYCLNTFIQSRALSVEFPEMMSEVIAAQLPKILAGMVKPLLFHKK
The format is functional.

Experiment [2] addresses T3, Alpha-2A adrenergic receptor (Homo sapiens, UniProt P08913).
T3 sequence (P08913 whole entry): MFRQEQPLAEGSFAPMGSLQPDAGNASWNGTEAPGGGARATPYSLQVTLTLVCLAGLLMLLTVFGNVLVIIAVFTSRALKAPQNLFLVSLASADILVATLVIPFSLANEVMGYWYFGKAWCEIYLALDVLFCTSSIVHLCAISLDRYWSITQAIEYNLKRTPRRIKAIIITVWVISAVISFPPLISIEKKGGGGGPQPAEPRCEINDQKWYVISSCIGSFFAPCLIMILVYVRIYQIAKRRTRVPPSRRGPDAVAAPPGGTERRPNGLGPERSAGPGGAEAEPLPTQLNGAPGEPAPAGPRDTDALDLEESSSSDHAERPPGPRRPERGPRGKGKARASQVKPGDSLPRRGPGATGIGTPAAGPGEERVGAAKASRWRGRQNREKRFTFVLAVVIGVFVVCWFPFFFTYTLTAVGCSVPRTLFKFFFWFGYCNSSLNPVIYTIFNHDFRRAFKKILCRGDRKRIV
Type of experiment: functional, cell-based.

The target of experiment [3] is T4, Gastrin/cholecystokinin type B receptor (Homo sapiens, UniProt P32239).
T4 sequence (P32239 whole entry): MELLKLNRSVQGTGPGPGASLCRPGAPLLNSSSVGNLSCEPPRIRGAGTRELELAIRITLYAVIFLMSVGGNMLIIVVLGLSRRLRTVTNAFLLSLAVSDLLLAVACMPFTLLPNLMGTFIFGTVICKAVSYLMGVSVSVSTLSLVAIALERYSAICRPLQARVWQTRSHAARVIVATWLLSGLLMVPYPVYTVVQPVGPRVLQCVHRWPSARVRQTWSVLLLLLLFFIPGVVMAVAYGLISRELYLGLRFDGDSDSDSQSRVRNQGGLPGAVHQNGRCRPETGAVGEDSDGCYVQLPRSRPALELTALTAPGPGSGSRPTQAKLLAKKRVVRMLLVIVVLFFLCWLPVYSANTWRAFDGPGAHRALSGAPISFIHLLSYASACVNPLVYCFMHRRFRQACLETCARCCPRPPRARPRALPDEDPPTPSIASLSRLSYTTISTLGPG

The target in experiment [4] is 3',5'-cyclic-AMP phosphodiesterase 4D (Homo sapiens, UniProt Q08499). Type of experiment: functional.
Experiment [5] has as its target Muscarinic acetylcholine receptor M3 (Homo sapiens, UniProt P20309).
Experiment [6] concerns the target Voltage-dependent L-type calcium channel subunit alpha-1C (Rattus norvegicus, UniProt P22002). The format is functional.

Experimental findings from ChEMBL document CHEMBL5291721, “A preclinical secondary pharmacology resource illuminates target-adverse drug reaction associations of marketed drugs” (Nat Commun, 2023) are described below.

The AC50 is the midpoint of the concentration-response curve, whichever way the signal moves.

Structures are written as SMILES.
Note: assay procedure not described here.

Sequence of 3',5'-cyclic-AMP phosphodiesterase 4D (Q08499 whole entry): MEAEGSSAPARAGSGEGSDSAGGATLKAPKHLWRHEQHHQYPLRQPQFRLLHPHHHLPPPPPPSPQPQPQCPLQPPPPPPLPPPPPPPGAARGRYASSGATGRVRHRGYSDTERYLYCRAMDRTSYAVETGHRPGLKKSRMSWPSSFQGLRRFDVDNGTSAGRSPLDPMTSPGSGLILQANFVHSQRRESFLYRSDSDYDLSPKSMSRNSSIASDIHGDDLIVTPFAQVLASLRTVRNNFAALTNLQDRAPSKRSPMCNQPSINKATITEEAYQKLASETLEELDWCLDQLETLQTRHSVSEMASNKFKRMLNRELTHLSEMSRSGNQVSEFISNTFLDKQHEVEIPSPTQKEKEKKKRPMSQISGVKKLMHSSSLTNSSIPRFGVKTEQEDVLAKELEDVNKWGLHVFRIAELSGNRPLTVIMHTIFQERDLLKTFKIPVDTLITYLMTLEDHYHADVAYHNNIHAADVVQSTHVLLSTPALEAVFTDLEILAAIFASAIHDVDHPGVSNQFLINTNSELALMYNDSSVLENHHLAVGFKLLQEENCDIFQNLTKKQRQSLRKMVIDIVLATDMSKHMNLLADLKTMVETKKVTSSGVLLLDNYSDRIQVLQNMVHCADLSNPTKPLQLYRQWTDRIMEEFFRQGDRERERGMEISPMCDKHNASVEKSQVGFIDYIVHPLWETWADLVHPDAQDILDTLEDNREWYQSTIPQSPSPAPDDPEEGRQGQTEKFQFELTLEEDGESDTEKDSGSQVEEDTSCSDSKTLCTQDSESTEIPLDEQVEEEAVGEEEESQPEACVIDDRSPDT
Sequence of Muscarinic acetylcholine receptor M3 (P20309 whole entry): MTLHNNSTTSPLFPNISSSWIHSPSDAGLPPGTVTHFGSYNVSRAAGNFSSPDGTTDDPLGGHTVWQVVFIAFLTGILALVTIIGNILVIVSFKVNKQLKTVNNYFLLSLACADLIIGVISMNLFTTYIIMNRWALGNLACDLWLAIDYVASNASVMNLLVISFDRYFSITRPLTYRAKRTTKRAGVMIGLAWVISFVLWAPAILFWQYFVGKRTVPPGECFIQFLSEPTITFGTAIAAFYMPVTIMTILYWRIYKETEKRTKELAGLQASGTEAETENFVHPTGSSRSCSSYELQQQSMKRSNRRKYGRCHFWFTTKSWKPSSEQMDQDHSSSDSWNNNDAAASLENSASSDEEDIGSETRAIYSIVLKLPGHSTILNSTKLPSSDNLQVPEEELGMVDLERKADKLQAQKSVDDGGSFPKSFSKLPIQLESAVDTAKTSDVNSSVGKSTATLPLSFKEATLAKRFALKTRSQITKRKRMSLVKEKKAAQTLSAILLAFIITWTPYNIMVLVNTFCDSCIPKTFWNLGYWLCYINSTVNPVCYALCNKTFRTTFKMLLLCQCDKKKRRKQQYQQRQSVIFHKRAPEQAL
Sequence of Voltage-dependent L-type calcium channel subunit alpha-1C (P22002 whole entry): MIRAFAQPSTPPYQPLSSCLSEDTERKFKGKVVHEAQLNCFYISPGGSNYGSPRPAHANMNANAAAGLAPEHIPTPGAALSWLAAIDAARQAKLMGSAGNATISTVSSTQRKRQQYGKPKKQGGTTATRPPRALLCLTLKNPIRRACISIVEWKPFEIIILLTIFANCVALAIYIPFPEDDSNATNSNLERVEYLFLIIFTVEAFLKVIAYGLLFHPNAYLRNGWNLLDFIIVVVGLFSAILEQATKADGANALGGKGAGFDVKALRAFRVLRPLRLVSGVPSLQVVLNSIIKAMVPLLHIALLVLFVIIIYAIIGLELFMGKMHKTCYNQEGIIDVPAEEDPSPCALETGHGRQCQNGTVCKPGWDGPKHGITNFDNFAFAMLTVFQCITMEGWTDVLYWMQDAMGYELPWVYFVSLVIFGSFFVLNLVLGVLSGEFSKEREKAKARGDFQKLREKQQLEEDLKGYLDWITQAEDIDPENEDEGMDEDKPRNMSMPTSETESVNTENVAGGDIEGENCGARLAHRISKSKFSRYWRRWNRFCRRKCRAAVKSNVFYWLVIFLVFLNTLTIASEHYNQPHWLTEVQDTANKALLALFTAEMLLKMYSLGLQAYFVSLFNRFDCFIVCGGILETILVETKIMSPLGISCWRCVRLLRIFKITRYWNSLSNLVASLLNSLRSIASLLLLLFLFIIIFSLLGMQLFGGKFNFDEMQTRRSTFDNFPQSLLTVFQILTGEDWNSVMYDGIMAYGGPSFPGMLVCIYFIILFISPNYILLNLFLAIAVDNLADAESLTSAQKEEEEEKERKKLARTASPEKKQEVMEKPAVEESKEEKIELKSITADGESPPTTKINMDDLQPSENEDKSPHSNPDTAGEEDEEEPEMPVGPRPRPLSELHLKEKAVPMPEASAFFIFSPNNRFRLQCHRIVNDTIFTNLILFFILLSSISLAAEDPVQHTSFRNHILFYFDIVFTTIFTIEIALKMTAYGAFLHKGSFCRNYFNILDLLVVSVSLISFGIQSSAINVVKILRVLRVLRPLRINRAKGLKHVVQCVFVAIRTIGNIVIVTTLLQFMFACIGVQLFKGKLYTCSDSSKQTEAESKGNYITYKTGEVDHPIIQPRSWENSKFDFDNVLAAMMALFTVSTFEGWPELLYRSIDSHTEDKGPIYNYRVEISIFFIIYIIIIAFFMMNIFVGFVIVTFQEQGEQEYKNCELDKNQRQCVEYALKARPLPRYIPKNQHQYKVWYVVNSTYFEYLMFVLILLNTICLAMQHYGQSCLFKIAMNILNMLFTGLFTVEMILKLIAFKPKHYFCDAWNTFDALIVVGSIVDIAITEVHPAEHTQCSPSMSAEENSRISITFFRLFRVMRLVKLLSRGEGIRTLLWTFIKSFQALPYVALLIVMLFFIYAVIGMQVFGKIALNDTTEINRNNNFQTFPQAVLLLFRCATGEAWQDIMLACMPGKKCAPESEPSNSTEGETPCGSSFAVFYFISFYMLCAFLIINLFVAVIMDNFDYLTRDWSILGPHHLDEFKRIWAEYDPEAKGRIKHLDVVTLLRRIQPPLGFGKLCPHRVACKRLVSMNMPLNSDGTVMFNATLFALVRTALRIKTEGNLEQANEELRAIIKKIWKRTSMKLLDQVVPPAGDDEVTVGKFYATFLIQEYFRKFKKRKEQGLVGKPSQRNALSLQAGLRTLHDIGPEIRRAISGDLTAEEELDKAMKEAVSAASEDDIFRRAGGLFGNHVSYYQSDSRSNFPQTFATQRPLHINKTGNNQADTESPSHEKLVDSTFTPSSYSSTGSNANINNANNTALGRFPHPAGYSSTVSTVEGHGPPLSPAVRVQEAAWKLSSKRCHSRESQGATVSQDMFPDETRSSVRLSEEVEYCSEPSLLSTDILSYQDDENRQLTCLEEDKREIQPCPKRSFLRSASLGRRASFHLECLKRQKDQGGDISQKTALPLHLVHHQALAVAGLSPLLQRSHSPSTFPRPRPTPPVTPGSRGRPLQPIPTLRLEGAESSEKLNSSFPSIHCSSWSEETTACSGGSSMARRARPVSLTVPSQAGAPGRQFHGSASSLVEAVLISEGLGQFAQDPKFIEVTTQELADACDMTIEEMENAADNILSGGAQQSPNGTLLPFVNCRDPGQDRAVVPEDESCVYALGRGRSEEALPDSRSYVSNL

For `COc1ccccc1OCCNCC(O)c1ccc(C)c(S(N)(=O)=O)c1` (configuration not stated) [AMOSULALOL], the concentration at half-maximal activity (AC50) in experiment [1] is greater than 30 µM; at Progesterone receptor, greater than 30 µM; in experiment [2] it was 9.1 µM; in experiment [3], greater than 30 µM; in experiment [4], 6.7 µM; in experiment [5] it was greater than 30 µM. In addition, in experiment [6], the AC50 was greater than 30 µM.

On to `CC(C)C(=O)c1c(C(C)C)nn2ccccc12` [IBUDILAST], for which the AC50 was greater than 30 µM in experiment [1]; greater than 30 µM at Progesterone receptor; greater than 30 µM in experiment [2]; greater than 30 µM in experiment [3]; 0.4 µM in experiment [4]; greater than 30 µM in experiment [5]. The AC50 in experiment [6] was greater than 30 µM.

Regarding `Cc1cc(O)c(C(=O)N[C@@H](C(=O)N[C@@H]2C(=O)N3C(C(=O)O)=C(CSc4nnnn4C)CS[C@H]23)c2ccc(O)cc2)cn1` [CEFPIRAMIDE], the AC50 (in experiment [1]; on Progesterone receptor; in experiment [2]; in experiment [3]; in experiment [4]; in experiment [5]) was greater than 30 µM each time. In addition, in experiment [6], the AC50 is greater than 30 µM.

On to `O=C(O)/C=C/c1ccc(Cn2ccnc2)cc1` [OZAGREL], for which the AC50 (in experiment [1]; on Progesterone receptor; in experiment [2]; in experiment [3]; in experiment [4]; in experiment [5]) was greater than 30 µM throughout. In addition, the AC50 in experiment [6] was greater than 30 µM.

Turning to `Cc1cccc(C(C)c2cnc[nH]2)c1C` (configuration not stated) [MEDETOMIDINE], the AC50 (in experiment [1]; on Progesterone receptor; in experiment [3]; in experiment [4]; in experiment [5]; in experiment [6]) was greater than 30 µM throughout.

For the compound `Clc1ccc(CCCOCCCN2CCCCC2)cc1` [PITOLISANT], the AC50 (in experiment [1]; at Progesterone receptor; in experiment [3]; in experiment [4]; in experiment [5]) was greater than 30 µM each time.

Take `CC(Oc1c(Cl)cccc1Cl)C1=NCCN1` (configuration not stated) [LOFEXIDINE]: the AC50 (in experiment [1]; at Progesterone receptor; in experiment [3]; in experiment [4]; in experiment [5]; in experiment [6]) was greater than 30 µM each time.

As for `CCC1(CC)C(=O)NCC(C)C1=O` (configuration not stated) [METHYPRYLON], the AC50 (in experiment [1]; at Progesterone receptor; in experiment [2]; in experiment [3]; in experiment [4]; in experiment [5]) was greater than 30 µM in each case.

Consider `O=C(NCCNCC(O)COc1ccc(O)cc1)N1CCOCC1` (configuration not stated) [XAMOTEROL], for which the AC50 (in experiment [1]; on Progesterone receptor; in experiment [2]; in experiment [3]; in experiment [4]; in experiment [5]) was greater than 30 µM throughout.

Turning to `CN1C(=O)C(O)N=C(c2ccccc2Cl)c2cc(Cl)ccc21` (configuration not stated) [LORMETAZEPAM], the AC50 in experiment [1] was greater than 30 µM; on Progesterone receptor, greater than 30 µM; in experiment [3], greater than 30 µM; in experiment [4], 5.6 µM; in experiment [5], greater than 30 µM; in experiment [6], greater than 30 µM.

For `CC(C)(C)c1cc(C(C)(C)C)c(NC(=O)c2c[nH]c3ccccc3c2=O)cc1O` [IVACAFTOR], the AC50 is greater than 30 µM in experiment [1]; greater than 10 µM in experiment [2]; greater than 30 µM in experiment [3]; greater than 30 µM in experiment [4]; greater than 30 µM in experiment [5]; greater than 10 µM in experiment [6].

On to `CC(C)OC(=O)CCC/C=C\C[C@@H]1[C@@H](CC[C@@H](O)CCc2ccccc2)[C@H](O)C[C@@H]1O` [LATANOPROST], for which the AC50 (in experiment [1]; at Progesterone receptor; in experiment [2]; in experiment [3]; in experiment [4]; in experiment [5]) was greater than 30 µM in each case.

With `CC(=O)OCC(=O)[C@@]12N=C(C)O[C@@H]1C[C@H]1[C@@H]3CCC4=CC(=O)C=C[C@]4(C)[C@H]3[C@@H](O)C[C@@]12C` [DEFLAZACORT], the AC50 in experiment [1], in experiment [2], in experiment [3], in experiment [4], in experiment [5] and in experiment [6] was greater than 30 µM in each case.

Consider `CCCCc1ncc(/C=C(\Cc2cccs2)C(=O)O)n1Cc1ccc(C(=O)O)cc1` [EPROSARTAN], for which the AC50 in experiment [1], in experiment [2], in experiment [3], in experiment [4], in experiment [5] and in experiment [6] was greater than 10 µM each time.

On to `Cc1ccc(-n2nccn2)c(C(=O)N2CCN(c3nc4cc(Cl)ccc4o3)CC[C@H]2C)c1` [SUVOREXANT], for which the AC50 (in experiment [1]; at Progesterone receptor; in experiment [2]; in experiment [3]; in experiment [4]; in experiment [5]) was greater than 30 µM in each case.

For `NCC(=O)CCC(=O)O` [AMINOLEVULINIC ACID], the AC50 (in experiment [1]; on Progesterone receptor; in experiment [2]; in experiment [3]; in experiment [4]; in experiment [5]) was greater than 30 µM in each case.

As to `COC(=O)C1=C(C)NC(C)=C(C(=O)OC2CCCN(Cc3ccccc3)C2)C1c1cccc([N+](=O)[O-])c1` (configuration not stated) [BENIDIPINE], the AC50 in experiment [1] is greater than 30 µM; in experiment [2], greater than 30 µM; in experiment [3], greater than 30 µM; in experiment [4], 7.1 µM; in experiment [5], greater than 30 µM; in experiment [6] it was 0.014 µM.

Consider `CN1C(=O)C(O)N=C(c2ccccc2)c2cc(Cl)ccc21` (configuration not stated) [TEMAZEPAM], for which the AC50 in experiment [1] is greater than 30 µM; in experiment [2], greater than 10 µM; in experiment [3], greater than 30 µM; in experiment [4], greater than 30 µM; in experiment [5] it was greater than 10 µM; in experiment [6], greater than 10 µM.

`CCN(CC)C(=O)N[C@H]1C[C@@H]2c3cccc4[nH]cc(c34)C[C@H]2N(C)C1` [TERGURIDE]: the AC50 in experiment [1] was greater than 30 µM; on Progesterone receptor, greater than 30 µM; in experiment [2], 0.018 µM; in experiment [3], greater than 30 µM; in experiment [4] it was greater than 30 µM; in experiment [5] it was greater than 30 µM.
